pIC50: −log10 of the molar value. Values belong to the compound of their own block, whether it stands above or below them.
Columns and labels:
EED (1-441)-His protein = biological target: T1, EED (1-441)-His protein (Homo sapiens, UniProt O75530); experiment: EED-H3K27Me3 peptide competition binding assay by AlphaScreen; conditions: EED-H3K27Me3 peptide competition, AlphaScreen; read-out: (a) IC50 EED Alphascreen binding Qualified
T1 construct: 30 nM EED (1-441)-His protein
Summary of the method: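 Serially diluted compound (12 points, 3-fold) incubated 20 min with 30 nM EED(1-441)-His and 15 nM biotin-H3K27Me3(19-33) peptide in 25 mM HEPES pH 8, 0.02% Tween-20, 0.5% BSA. Ni-chelate acceptor/streptavidin donor beads (10 μg/mL each) added, 1 h rt dark; 615 nm emission normalized to controls, dose-response fit for IC50.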

[1] = biological target: wild type PRC2 (wtPRC2) complex (Homo sapiens, UniProt O75530); experiment: EED LC-MS assay (SAH production by PRC2); format: biochemical; conditions: PRC2 LC-MS assay; read-out: (b) IC50 EED LC-MS Qualified
Sequence of wild type PRC2 (wtPRC2) complex (O75530 whole entry): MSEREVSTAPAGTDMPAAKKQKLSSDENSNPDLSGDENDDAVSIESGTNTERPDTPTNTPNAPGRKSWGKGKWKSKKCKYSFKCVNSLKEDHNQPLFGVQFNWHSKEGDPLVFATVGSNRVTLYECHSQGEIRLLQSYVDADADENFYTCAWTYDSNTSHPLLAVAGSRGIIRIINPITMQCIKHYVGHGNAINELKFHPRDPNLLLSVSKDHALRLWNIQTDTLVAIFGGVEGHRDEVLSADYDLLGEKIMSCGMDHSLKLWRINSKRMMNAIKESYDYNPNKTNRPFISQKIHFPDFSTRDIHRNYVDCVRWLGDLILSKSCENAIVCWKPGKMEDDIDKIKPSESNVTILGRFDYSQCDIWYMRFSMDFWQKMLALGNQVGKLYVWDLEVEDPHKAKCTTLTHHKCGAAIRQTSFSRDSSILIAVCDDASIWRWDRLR
Sequence of wild type PRC2 (wtPRC2) complex (Q15910 whole entry partner): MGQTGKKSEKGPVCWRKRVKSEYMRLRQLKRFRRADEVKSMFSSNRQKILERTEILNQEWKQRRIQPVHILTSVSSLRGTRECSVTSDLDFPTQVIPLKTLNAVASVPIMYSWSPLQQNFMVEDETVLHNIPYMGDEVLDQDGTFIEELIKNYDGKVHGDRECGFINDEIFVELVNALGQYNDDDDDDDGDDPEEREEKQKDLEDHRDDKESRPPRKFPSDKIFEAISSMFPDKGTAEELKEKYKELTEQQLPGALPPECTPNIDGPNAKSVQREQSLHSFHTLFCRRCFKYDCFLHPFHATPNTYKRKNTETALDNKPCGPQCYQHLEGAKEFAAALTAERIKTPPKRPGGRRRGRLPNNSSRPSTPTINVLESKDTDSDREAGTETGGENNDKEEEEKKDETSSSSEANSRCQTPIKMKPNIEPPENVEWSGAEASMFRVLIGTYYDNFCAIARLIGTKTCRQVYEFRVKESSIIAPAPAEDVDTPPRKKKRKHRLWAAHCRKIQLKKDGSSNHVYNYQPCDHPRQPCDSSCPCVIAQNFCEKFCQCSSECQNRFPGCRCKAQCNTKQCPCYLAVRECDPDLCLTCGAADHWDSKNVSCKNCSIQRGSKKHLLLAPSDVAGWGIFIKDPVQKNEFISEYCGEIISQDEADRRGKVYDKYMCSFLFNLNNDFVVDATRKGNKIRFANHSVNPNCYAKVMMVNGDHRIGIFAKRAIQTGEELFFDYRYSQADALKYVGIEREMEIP
Sequence of wild type PRC2 (wtPRC2) complex (Q15022 whole entry partner): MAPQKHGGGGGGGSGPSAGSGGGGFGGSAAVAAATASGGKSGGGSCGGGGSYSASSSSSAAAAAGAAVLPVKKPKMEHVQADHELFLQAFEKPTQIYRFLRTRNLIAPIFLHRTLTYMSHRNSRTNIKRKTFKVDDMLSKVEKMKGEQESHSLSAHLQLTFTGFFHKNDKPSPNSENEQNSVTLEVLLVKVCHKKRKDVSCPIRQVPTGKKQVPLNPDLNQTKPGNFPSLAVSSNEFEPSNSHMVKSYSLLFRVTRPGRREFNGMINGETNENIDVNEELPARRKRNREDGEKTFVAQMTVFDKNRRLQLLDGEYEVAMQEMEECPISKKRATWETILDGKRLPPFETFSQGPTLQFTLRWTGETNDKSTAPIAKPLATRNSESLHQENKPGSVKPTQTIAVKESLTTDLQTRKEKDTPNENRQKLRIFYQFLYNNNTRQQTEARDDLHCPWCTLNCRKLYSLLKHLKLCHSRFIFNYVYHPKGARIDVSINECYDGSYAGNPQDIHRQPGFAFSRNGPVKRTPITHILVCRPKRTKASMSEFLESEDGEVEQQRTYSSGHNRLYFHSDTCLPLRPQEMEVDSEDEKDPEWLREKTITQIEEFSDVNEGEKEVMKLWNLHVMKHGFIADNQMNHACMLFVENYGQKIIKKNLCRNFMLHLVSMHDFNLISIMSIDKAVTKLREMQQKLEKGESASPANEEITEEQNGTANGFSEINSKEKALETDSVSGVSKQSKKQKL
Sequence of wild type PRC2 (wtPRC2) complex (Q09028 whole entry partner): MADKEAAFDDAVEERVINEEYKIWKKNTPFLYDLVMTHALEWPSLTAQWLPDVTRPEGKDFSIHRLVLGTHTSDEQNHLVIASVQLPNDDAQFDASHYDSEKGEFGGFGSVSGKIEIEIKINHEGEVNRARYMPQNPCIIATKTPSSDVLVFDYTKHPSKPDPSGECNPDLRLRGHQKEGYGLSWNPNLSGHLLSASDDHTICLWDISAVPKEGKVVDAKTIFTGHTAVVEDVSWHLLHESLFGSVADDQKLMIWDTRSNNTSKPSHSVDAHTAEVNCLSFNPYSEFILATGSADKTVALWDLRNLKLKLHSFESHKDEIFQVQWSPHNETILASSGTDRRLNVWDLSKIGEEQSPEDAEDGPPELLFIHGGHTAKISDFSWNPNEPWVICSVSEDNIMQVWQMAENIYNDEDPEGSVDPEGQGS
Sequence of wild type PRC2 (wtPRC2) complex (Q6ZN18 whole entry partner): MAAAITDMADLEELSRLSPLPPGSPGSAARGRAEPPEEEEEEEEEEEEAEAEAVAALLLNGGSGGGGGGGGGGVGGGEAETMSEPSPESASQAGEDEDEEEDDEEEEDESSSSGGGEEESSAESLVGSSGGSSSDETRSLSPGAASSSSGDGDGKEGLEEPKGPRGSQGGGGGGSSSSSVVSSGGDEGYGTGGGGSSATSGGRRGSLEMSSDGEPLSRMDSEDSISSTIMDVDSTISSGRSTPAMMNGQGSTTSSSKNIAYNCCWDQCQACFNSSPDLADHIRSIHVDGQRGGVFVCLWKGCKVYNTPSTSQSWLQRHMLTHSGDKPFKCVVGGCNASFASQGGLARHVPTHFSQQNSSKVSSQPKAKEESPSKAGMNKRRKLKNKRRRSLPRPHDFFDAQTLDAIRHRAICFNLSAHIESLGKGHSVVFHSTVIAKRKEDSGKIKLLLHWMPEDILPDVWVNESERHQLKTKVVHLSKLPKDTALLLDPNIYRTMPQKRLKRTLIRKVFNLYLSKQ
Summary of the method: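 Pentameric PRC2 (EZH2, SUZ12, EED, Rbap48, AEBP), 12 nM final, preincubated 20 min with compound and SAM, then 1.5 μM biotinylated H3K27me0 peptide, 1 μM SAM, pH 8.0, 120 min at rt. SAH quantified by LC-MS/MS with d4-SAH; control-normalized activity fitted for IC50.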

[2] = tested on: H3K27 methylation in G401 cell; experiment: ELISA (H3K27 methylation) assay in G401 cells; format: cell-based, human; conditions: Homo sapiens, G-401, H3K27 methylation ELISA, read-out: (c) IC50 ELISA Qualified
Summary of the method: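 G401 cells treated 48 h with 3-fold dilutions (8 or 12 points, top 20 μM). Acid-extracted histones probed by ELISA for H3K27me3 or H3K27me2 with ECL readout, normalized to total H3. Percent inhibition versus DMSO fitted to dose-response curve for IC50.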

T1 sequence (O75530 whole entry): as the sequence (O75530 whole entry) above

Structure (SMILES): COc1cc(F)cc(F)c1CNc1ccc(-c2cccnc2)c2nncn12 [Example 220, N-(2,4-difluoro-6-methoxybenzyl)-8-(pyridin-3-yl)-[1,2,4]triazolo[4,3-a]pyridin-5-amine]
pIC50 (EED (1-441)-His protein): 7.34
pIC50 [1]: 6.85
pIC50 [2]: 7.25

Structure (SMILES): COc1cccc(F)c1CNc1ccc(-c2cnn(CCN3CCOCC3)c2)c2nncn12 [Example 226, N-(2-fluoro-6-methoxybenzyl)-8-(1-(2-morpholinoethyl)-1H-pyrazol-4-yl)-[1,2,4] triazolo[4,3-a]pyridin-5-amine]
pIC50 (EED (1-441)-His protein): 7.36
pIC50 [1]: 7.04
pIC50 [2]: 7.41

Structure (SMILES): COc1cc(F)cc(F)c1CNc1ccc(-c2c(C)noc2C)c2nncn12 [Example 227, N-(2,4-difluoro-6-methoxybenzyl)-8-(3,5-dimethylisoxazol-4-yl)-[1,2,4] triazolo[4,3-a]pyridin-5-amine]
pIC50 (EED (1-441)-His protein): 7.34
pIC50 [1]: 6.88
pIC50 [2]: 7.40

Structure (SMILES): COc1cc(F)cc(F)c1CNc1ccc(-c2ccncc2)c2nncn12 [Example 228, N-(2,4-difluoro-6-methoxybenzyl)-8-(pyridin-4-yl)-[1,2,4]triazolo[4,3-a]pyridin-5-amine]
pIC50 (EED (1-441)-His protein): 7.10
pIC50 [1]: 7.01
pIC50 [2]: 7.36

Structure (SMILES): COc1cccc(F)c1CNc1ccc(-c2ccnn2C(C)C)c2nncn12 [Example 232, N-(2-fluoro-6-methoxybenzyl)-8-(1-isopropyl-1H-pyrazol-5-yl)-[1,2,4] triazolo[4,3-a]pyridin-5-amine]
pIC50 (EED (1-441)-His protein): 7.30
pIC50 [1]: 6.80
pIC50 [2]: 7.21

Structure (SMILES): COc1cccc(F)c1CNc1ccc(-c2ccc(CCC(=O)N(C)C)nc2)c2nncn12 [Example 234, 3-(5-(5-((2-fluoro-6-methoxybenzyl)amino)-[1,2,4]triazolo[4,3-a]pyridin-8-yl)pyridin-2-yl)-N,N-dimethyl propanamide]
pIC50 (EED (1-441)-His protein): 7.46
pIC50 [1]: 6.83
pIC50 [2]: 7.58

Structure (SMILES): COc1cc(F)cc(F)c1CNc1ccc(-c2ccc(S(C)(=O)=O)cc2)c2nncn12 [Example 235, N-(2,4-difluoro-6-methoxybenzyl)-8-(4-(methylsulfonyl)phenyl)-[1,2,4]triazolo[4,3-a]pyridin-5-amine]
pIC50 (EED (1-441)-His protein): 7.16
pIC50 [1]: 6.97
pIC50 [2]: 6.86

Structure (SMILES): COc1cccc(F)c1CNc1ccc(-c2cnccc2Cl)c2nncn12 [Example 236, 8-(4-chloropyridin-3-yl)-N-(2-fluoro-6-methoxybenzyl)-[1,2,4]triazolo[4,3-a]pyridin-5-amine]
pIC50 (EED (1-441)-His protein): 7.08
pIC50 [1]: 6.94
pIC50 [2]: 7.18

Structure (SMILES): COc1cccc(F)c1CNc1ccc(-c2cccnc2C(F)(F)F)c2nncn12 [Example 237, N-(2-fluoro-6-methoxybenzyl)-8-(2-(trifluoromethyl)pyridin-3-yl)-[1,2,4]triazolo[4,3-a] pyridin-5-amine]
pIC50 (EED (1-441)-His protein): 7.06
pIC50 [1]: 6.94
pIC50 [2]: 6.94

Structure (SMILES): COc1cccc(F)c1CNc1ccc(-c2ccccc2CO)c2nncn12 [Example 238, (2-(5-((2-fluoro-6-methoxy benzyl)amino)-[1,2,4]triazolo[4,3-a]pyridin-8-yl)phenyl)methanol]
pIC50 (EED (1-441)-His protein): 7.13
pIC50 [1]: 6.82
pIC50 [2]: 7.07

Structure (SMILES): COc1cc(F)cc(F)c1CNc1ccc(-c2cnc(S(C)(=O)=O)cc2C)c2nncn12 [Example 240, N-(2,4-difluoro-6-methoxybenzyl)-8-(4-methyl-6-(methylsulfonyl)pyridin-3-yl)-[1,2,4]triazolo[4,3-a] pyridin-5-amine]
pIC50 (EED (1-441)-His protein): 7.28
pIC50 [1]: 7.27
pIC50 [2]: 7.53

Structure (SMILES): COC(=O)N1CCC(n2cc(-c3ccc(NCc4c(F)cccc4OC)n4cnnc34)cn2)CC1 [Example 246, methyl 4-(4-(5-((2-fluoro-6-methoxybenzyl)amino)-[1,2,4]triazolo[4,3-a]pyridin-8-yl)-1H-pyrazol-1-yl) piperidine-1-carboxylate]
pIC50 (EED (1-441)-His protein): 7.16
pIC50 [1]: 6.97
pIC50 [2]: 6.62

Structure (SMILES): COc1cccc(F)c1CNc1ccc(-c2cn(C)nc2C(F)(F)F)c2nncn12 [Example 247, N-(2-fluoro-6-methoxybenzyl)-8-(1-methyl-3-(trifluoromethyl)-1H-pyrazol-4-yl)-[1,2,4]triazolo[4,3-a] pyridin-5-amine]
pIC50 (EED (1-441)-His protein): 7.45
pIC50 [1]: 6.15
pIC50 [2]: 7.37

Now those with a higher pIC50 (EED (1-441)-His protein), led by results:

pIC50 (EED (1-441)-His protein): 7.67
pIC50 [1]: 7.83
pIC50 [2]: 7.92
Structure (SMILES): COc1cccc(F)c1CNc1ccc(-c2cncnc2C)c2nncn12 [Example 221, N-(2-fluoro-6-methoxybenzyl)-8-(4-methylpyrimidin-5-yl)-[1,2,4] triazolo[4,3-a]pyridin-5-amine]

pIC50 (EED (1-441)-His protein): 8.00
pIC50 [1]: 6.92
pIC50 [2]: 8.00
Structure (SMILES): COc1cccc(F)c1CNc1ccc(-c2ccc(F)nc2C)c2nncn12 [Example 222, 8-(6-fluoro-2-methylpyridin-3-yl)-N-(2-fluoro-6-methoxybenzyl)-[1,2,4]triazolo[4,3-a] pyridin-5-amine]

pIC50 (EED (1-441)-His protein): 7.63
pIC50 [1]: 6.64
pIC50 [2]: 7.18
Structure (SMILES): COc1cccc(F)c1CNc1ccc(-c2cc(F)ccc2C)c2nncn12 [Example 223, 8-(5-fluoro-2-methylphenyl)-N-(2-fluoro-6-methoxybenzyl)-[1,2,4]triazolo[4,3-a] pyridin-5-amine]

pIC50 (EED (1-441)-His protein): 7.57
pIC50 [1]: 6.83
pIC50 [2]: 7.80
Structure (SMILES): COc1cccc(F)c1CNc1ccc(-c2cnn(C3CCNCC3)c2)c2nncn12 [Example 225, N-(2-fluoro-6-methoxybenzyl)-8-(1-(piperidin-4-yl)-1H-pyrazol-4-yl)-[1,2,4]triazolo[4,3-a]pyridin-5-amine]

pIC50 (EED (1-441)-His protein): 7.79
pIC50 [1]: 7.25
pIC50 [2]: 7.87
Structure (SMILES): COc1cccc(F)c1CNc1ccc(-c2ccc(S(C)(=O)=O)cc2C)c2nncn12 [Example 229, N-(2-fluoro-6-methoxybenzyl)-8-(2-methyl-4-(methylsulfonyl)phenyl)-[1,2,4]triazolo[4,3-a]pyridin-5-amine]

pIC50 (EED (1-441)-His protein): 7.89
pIC50 [1]: 7.57
pIC50 [2]: 8.03
Structure (SMILES): COc1cccc(F)c1CNc1ccc(-c2ccncc2C)c2nncn12 [Example 230, N-(2-fluoro-6-methoxybenzyl)-8-(3-methylpyridin-4-yl)-[1,2,4]triazolo[4,3-a] pyridin-5-amine]

pIC50 (EED (1-441)-His protein): 8.11
pIC50 [1]: 7.54
pIC50 [2]: 8.47
Structure (SMILES): COc1cccc(F)c1CNc1ccc(-c2ccc(C(=O)N(C)C)cc2C)c2nncn12 [Example 231, 4-(5-((2-fluoro-6-methoxybenzyl)amino)-[1,2,4]triazolo[4,3-a]pyridin-8-yl)-N,N,3-trimethylbenzamide]

pIC50 (EED (1-441)-His protein): 7.85
pIC50 [1]: 7.32
pIC50 [2]: 7.82
Structure (SMILES): CCn1nccc1-c1ccc(NCc2c(F)cccc2OC)n2cnnc12 [Example 233, 8-(1-ethyl-1H-pyrazol-5-yl)-N-(2-fluoro-6-methoxybenzyl)-[1,2,4]triazolo[4,3-a] pyridin-5-amine]

pIC50 (EED (1-441)-His protein): 7.61
pIC50 [1]: 7.40
pIC50 [2]: 7.70
Structure (SMILES): COc1cc(F)cc(F)c1CNc1ccc(-c2cccnc2C)c2nncn12 [Example 239, N-(2,4-difluoro-6-methoxybenzyl)-8-(2-methylpyridin-3-yl)-[1,2,4]triazolo[4,3-a]pyridin-5-amine]

pIC50 (EED (1-441)-His protein): 7.79
pIC50 [1]: 7.25
pIC50 [2]: 7.90
Structure (SMILES): COc1cc(F)cc(F)c1CNc1ccc(-c2ccc(S(C)(=O)=O)nc2C)c2nncn12 [Example 241, N-(2,4-difluoro-6-methoxybenzyl)-8-(2-methyl-6-(methylsulfonyl)pyridin-3-yl)-[1,2,4]triazolo[4,3-a] pyridin-5-amine]

pIC50 (EED (1-441)-His protein): 7.84
pIC50 [1]: 7.56
pIC50 [2]: 8.09
Structure (SMILES): COc1cccc(F)c1CNc1ccc(-c2c(C)nn(C(C)C)c2C)c2nncn12 [Example 245, N-(2-fluoro-6-methoxybenzyl)-8-(1-isopropyl-3,5-dimethyl-1H-pyrazol-4-yl)-[1,2,4]triazolo[4,3-a]pyridin-5-amine]

pIC50 (EED (1-441)-His protein): 7.78
pIC50 [1]: 7.09
pIC50 [2]: 8.02
Structure (SMILES): COc1cccc(F)c1CNc1ccc(-c2cnc(F)cc2C)c2nncn12 [Example 248, 8-(6-fluoro-4-methylpyridin-3-yl)-N-(2-fluoro-6-methoxybenzyl)-[1,2,4]triazolo[4,3-a] pyridin-5-amine]

pIC50 (EED (1-441)-His protein): 7.64
pIC50 [1]: 7.38
pIC50 [2]: 7.91
Structure (SMILES): COc1cccc(F)c1CNc1ccc(-c2ccc(C)nc2C)c2nncn12 [Example 249, 8-(2,6-dimethylpyridin-3-yl)-N-(2-fluoro-6-methoxybenzyl)-[1,2,4]triazolo[4,3-a] pyridin-5-amine]

pIC50 (EED (1-441)-His protein): 7.84
pIC50 [1]: 7.69
pIC50 [2]: 8.19
Structure (SMILES): COc1cccc(F)c1CNc1ccc(-c2ccc(C#N)nc2C)c2nncn12 [Example 250, 5-(5-((2-fluoro-6-methoxybenzyl)amino)-[1,2,4]triazolo[4,3-a]pyridin-8-yl)-6-methylpicolinonitrile]

pIC50 (EED (1-441)-His protein): 7.80
pIC50 [1]: 7.38
pIC50 [2]: 8.07
Structure (SMILES): COc1cccc(F)c1CNc1ccc(-c2cnc(C#N)cc2C)c2nncn12 [Example 251, 5-(5-((2-fluoro-6-methoxybenzyl)amino)-[1,2,4]triazolo[4,3-a]pyridin-8-yl)-4-methylpicolinonitrile]

Reference: US10689378B2, “Triazolopyridine compounds and uses thereof” (Novartis AG, priority 2016, dated 2020)
